Bounds are passed on as bounds.

The target of this assay is T1, ΔF508-CFTR (Homo sapiens, UniProt P13569, DEL508-508).
T1 construct: expressed in transfected cells
The assay can be described thus: Membrane potential optical assay (FRET/VIPR), identification of correction compounds. Type of assay: cell-based. The conditions noted are these: for Emax: relative efficacy. An excerpt:
I) Membrane Potential Optical Methods for Assaying ΔF508-CFTR Modulation Properties of Compounds
The optical membrane potential assay utilized voltage-sensitive FRET sensors described by Gonzalez and Tsien (See, Gonzalez, J. E. and R. Y. Tsien (1995) “Voltage sensing by fluorescence resonance energy transfer in single cells” Biophys J 69(4): 1272-80, and Gonzalez, J. E. and R. Y. Tsien (1997) “Improved indicators of cell membrane potential that use fluorescence resonance energy transfer” Chem Biol 4(4): 269-77) in combination with instrumentation for measuring fluorescence changes such as the Voltage/Ion Probe Reader (VIPR) (See, Gonzalez, J. E., K. Oades, et al. (1999) “Cell-based assays and instrumentation for screening ion-channel targets” Drug Discov Today 4(9): 431-439).
These voltage sensitive assays are based on the change in fluorescence resonant energy transfer (FRET) between the membrane-soluble, voltage-sensitive dye, DiSBAC2(3), and a fluorescent phospholipid, CC2-DMPE, which is attached to the outer leaflet of the plasma membrane and acts as a FRET donor. Changes in membrane potential (Vm) cause the negatively charged DiSBAC2(3) to redistribute across the plasma membrane and the amount of energy transfer from CC2-DMPE changes accordingly. The changes in fluorescence emission were monitored using VIPR™ II, which is an integrated liquid handler and fluorescent detector designed to conduct cell-based screens in 96- or 384-well microtiter plates.
Identification of Correction Compounds
To identify small molecules that correct the trafficking defect associated with ΔF508-CFTR; a single-addition HTS assay format was developed. The cells were incubated in serum-free medium for 16 hrs at 37° C. in the presence or absence (negative control) of test compound. As a positive control, cells plated in 384-well plates were incubated for 16 hrs at 27° C. to “temperature-correct” ΔF508-CFTR. The cells were subsequently rinsed 3× with Krebs Ringers solution and loaded with the voltage-sensitive dyes. To activate ΔF508-CFTR, 10 μM forskolin and the CFTR potentiator, genistein (20 μM), were added along with Cl^−-free medium to each well. The addition of Cl^−-free medium promoted Cl^− efflux in response to ΔF508-CFTR activation and the resulting membrane depolarization was optically monitored using the FRET-based voltage-sensor dyes.
NIH3T3 mouse fibroblasts stably expressing ΔF508-CFTR are used for optical measurements of membrane potential. The cells are maintained at 37° C. in 5% CO2 and 90% humidity in Dulbecco's modified Eagle's medium supplemented with 2 mM glutamine, 10% fetal bovine serum, 1×NEAA, β-ME, 1× pen/strep, and 25 mM HEPES in 175 cm^2 culture flasks. For all optical assays, the cells were seeded at 30,000/well in 384-well matrigel-coated plates and cultured for 2 hrs at 37° C. before culturing at 27° C. for 24 hrs. for the potentiator assay. For the correction assays, the cells are cultured at 27° C. or 37° C. with and without compounds for 16-24 hours B) Electrophysiological Assays for assaying ΔF508-CFTR modulation properties of compounds

T1 sequence (P13569 with tags, fused parts or gaps DEL508-508): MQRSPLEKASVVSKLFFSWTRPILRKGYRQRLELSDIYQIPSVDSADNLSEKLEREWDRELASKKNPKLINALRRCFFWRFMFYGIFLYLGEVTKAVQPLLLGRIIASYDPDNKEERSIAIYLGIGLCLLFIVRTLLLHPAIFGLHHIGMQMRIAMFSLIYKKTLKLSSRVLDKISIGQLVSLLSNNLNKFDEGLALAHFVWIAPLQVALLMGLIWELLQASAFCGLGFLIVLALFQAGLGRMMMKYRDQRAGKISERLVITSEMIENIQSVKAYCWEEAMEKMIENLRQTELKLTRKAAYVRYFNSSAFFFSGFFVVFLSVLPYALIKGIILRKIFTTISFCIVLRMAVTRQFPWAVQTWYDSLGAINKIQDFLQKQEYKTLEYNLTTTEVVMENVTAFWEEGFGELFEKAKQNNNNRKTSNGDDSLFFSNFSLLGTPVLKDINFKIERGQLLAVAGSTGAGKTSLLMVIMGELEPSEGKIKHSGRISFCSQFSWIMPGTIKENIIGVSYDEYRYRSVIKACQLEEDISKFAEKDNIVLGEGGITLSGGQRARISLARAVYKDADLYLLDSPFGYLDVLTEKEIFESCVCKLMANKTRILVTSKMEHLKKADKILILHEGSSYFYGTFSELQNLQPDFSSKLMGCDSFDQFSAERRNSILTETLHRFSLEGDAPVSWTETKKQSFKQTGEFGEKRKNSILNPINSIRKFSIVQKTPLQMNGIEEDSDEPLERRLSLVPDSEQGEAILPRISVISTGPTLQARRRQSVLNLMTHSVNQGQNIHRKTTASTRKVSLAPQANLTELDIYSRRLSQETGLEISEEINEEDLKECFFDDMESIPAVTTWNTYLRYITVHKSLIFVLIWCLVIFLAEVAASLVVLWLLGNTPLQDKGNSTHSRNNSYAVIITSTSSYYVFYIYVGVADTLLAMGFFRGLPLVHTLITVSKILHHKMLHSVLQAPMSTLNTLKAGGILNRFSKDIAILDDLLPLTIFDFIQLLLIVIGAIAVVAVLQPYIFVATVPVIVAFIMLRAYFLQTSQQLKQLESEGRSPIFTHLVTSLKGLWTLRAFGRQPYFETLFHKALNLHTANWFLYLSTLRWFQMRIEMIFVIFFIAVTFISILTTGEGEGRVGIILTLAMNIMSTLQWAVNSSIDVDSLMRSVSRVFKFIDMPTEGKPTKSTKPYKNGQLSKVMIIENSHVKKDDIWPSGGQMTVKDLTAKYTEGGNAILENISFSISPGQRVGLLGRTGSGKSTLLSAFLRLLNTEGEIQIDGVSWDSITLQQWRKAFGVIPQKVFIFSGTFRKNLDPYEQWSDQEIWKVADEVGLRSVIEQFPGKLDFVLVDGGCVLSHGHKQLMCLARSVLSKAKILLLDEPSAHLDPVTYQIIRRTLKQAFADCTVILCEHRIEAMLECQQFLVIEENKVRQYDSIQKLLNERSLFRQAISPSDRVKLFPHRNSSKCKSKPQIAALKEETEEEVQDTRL

As usually defined, the EC50 is the concentration at which the effect is half-maximal. What is called Emax is the maximal effect, on the per cent scale that the assay sets. On to `CC(c1nc2ccccc2c(=O)[nH]1)N1CCN(S(=O)(=O)c2ccccc2)CC1` (stereo not shown) [compound 128], for which the 50% effective concentration (EC50) lay within 10 to 25 µM and the maximal effect (Emax) is under 25%.
For the molecule `COc1ccc(S(=O)(=O)N2CCN(C(C)c3nc4ccc(-c5nnn[nH]5)cc4c(=O)n3C)CC2)cc1` (stereo not shown) [compound 144], the concentration giving a half-maximal response (EC50) lay within 25 to 60 µM and the maximum response (Emax) lay within 25 to 100%.
With `CCC(c1nc2ccccc2c(=O)n1CC)N1CCN(S(=O)(=O)c2ccc(OC)cc2)CC1` (stereo not shown) [compound 338], the half-maximal effective concentration (EC50) was under 10 µM and the Emax was over 100%.
Take `CC(c1nc2ccccc2c(=O)n1C)N1CCN(S(=O)(=O)c2cccc(C#N)c2)CC1` (stereo not shown) [compound 279]: the EC50 was 25 to 60 µM and the maximum response (Emax) is under 25%.
As for `COc1ccc(S(=O)(=O)N2CCN(C(C)c3nc(N4CCCCC4C)c4ccccc4n3)CC2)cc1` (stereo not shown) [compound 326], the 50% effective concentration (EC50) was under 10 µM and the Emax was 25 to 100%.
Consider `CC(c1nc2ccc(Cl)cc2c(=O)n1C)N1CCN(S(=O)(=O)c2ccccc2Cl)CC1` (stereo not shown) [compound 63], for which the EC50 fell in the range of 10 to 25 µM and the Emax is under 25%.
The corresponding values for `COc1ccc(S(=O)(=O)N2CCN(C(C)c3nc(OC4CCCCC4)c4cc(F)ccc4n3)CC2)cc1` (stereo not shown) [compound 374] are under 10 µM and 25 to 100%.
Turning to `COc1ccc(S(=O)(=O)N2CCN(C(C)c3ncc(C(N)=O)c(N4CCCCC4)n3)CC2)cc1` (stereo not shown) [compound 356], the concentration giving a half-maximal response (EC50) lay within 25 to 60 µM and the Emax was 25 to 100%.
Consider `CC(c1nc2ccc(Cl)cc2c(=O)n1C)N1CCN(C(=O)c2ccc(Cl)cc2)CC1` (stereo not shown) [compound 40], for which the EC50 lay within 10 to 25 µM and the maximal effect (Emax) was in the range of 25 to 100%.
`CC(c1nc2ccccc2c(=O)n1C)N1CC2CC1CN2S(=O)(=O)c1ccc(Br)cc1` (stereo not shown) [compound 177]: the EC50 was 25 to 60 µM and the maximum response (Emax) fell in the range of 25 to 100%.
Take `CC(c1nc2ccccc2c(=O)n1C)N1CCN(S(=O)(=O)c2cccc(C(F)(F)F)c2)CC1` (stereo not shown) [compound 7]: the EC50 lay within 10 to 25 µM and the maximal effect (Emax) was 25 to 100%.
As for `Cc1cccc(CC(=O)N2CCN(C(C)c3nc4cc(Cl)ccc4c(=O)n3C)CC2)c1` (stereo not shown) [compound 113], the concentration giving a half-maximal response (EC50) lay in the range of 10 to 25 µM and the maximal response (Emax) was under 25%.
As to `CC(c1nc2ccccc2c(=O)n1C)N1CCN(S(=O)(=O)c2ccc(Oc3ccccc3)nc2)CC1` (stereo not shown) [compound 267], the half-maximal effective concentration (EC50) lay within 25 to 60 µM and the maximal response (Emax) was under 25%.
Turning to `CC(c1nc2ccccc2c(=O)n1C)N1CCN(S(=O)(=O)c2ccc(Cl)s2)CC1` (stereo not shown) [compound 260], the EC50 was in the range of 10 to 25 µM and the maximal effect (Emax) fell in the range of 25 to 100%.
As for `CC(c1nc2cc(Cl)ccc2c(=O)n1C)N1CCN(S(=O)(=O)c2cccc(Cl)c2)CC1` (stereo not shown) [compound 97], the half-maximal effective concentration (EC50) was under 10 µM and the maximal effect (Emax) was 25 to 100%.
For the molecule `CC(NCCCN)c1nc2ccccc2c(=O)n1C` (stereo not shown) [compound 185], the EC50 lay in the range of 25 to 60 µM and the Emax was under 25%.
For the molecule `COc1ccc(S(=O)(=O)N2CCN(C(C)c3nc(OC4CCCC4)c4cc(F)ccc4n3)CC2)cc1` (stereo not shown) [compound 375], the concentration for a half-maximal effect (EC50) is under 10 µM and the maximum response (Emax) was over 100%.
Regarding `CC(c1nc2ccccc2c(=O)n1C)N1CCN(S(=O)(=O)c2cccc(Cl)c2)CC1` (stereo not shown) [compound 61], the EC50 was 10 to 25 µM and the maximal effect (Emax) lay within 25 to 100%.
Taken in the same sequence, the figures for `CC(=O)Nc1ccc(S(=O)(=O)N2CCN(C(C)c3nc4cc(Cl)ccc4c(=O)n3C)CC2)cc1` (stereo not shown) [compound 111] were 10 to 25 µM and 25 to 100%.
In the case of `Cc1cccc(NC(=O)N2CCN(C(C)c3nc4ccc(Cl)cc4c(=O)n3C)CC2C)c1` (stereo not shown) [compound 1], the EC50 fell in the range of 25 to 60 µM and the Emax lay within 25 to 100%.
In the case of `CC(c1nc2ccccc2c(=O)n1C)N1CCN(S(=O)(=O)c2ccc(Oc3ccccc3)cc2)CC1` (stereo not shown) [compound 255], the EC50 is 25 to 60 µM and the maximal response (Emax) is under 25%.
Consider `CC(c1nc(N2CCCCC2)c2ccccc2n1)N1CCN(S(=O)(=O)c2ccc(Cl)cc2)CC1` (stereo not shown) [compound 237], for which the EC50 is under 10 µM and the Emax was over 100%.
Turning to `COc1ccc(S(=O)(=O)N2CCN(C(C)c3nc4ccc(C#N)cc4c(=O)n3C)CC2)cc1` (stereo not shown) [compound 124], the EC50 was in the range of 10 to 25 µM and the maximal effect (Emax) lay in the range of 25 to 100%.
In the case of `COc1ccc(S(=O)(=O)N2CCN(C(C)c3ncc(Br)c(=O)[nH]3)CC2)cc1` (stereo not shown) [compound 378], the 50% effective concentration (EC50) was 25 to 60 µM and the Emax is under 25%.
In the case of `COc1ccc(S(=O)(=O)N2CCN(C(C)c3ncc(C(=O)O)c(N4CCCCC4)n3)CC2)cc1` (stereo not shown) [compound 355], the concentration giving a half-maximal response (EC50) fell in the range of 25 to 60 µM and the maximal response (Emax) was under 25%.
With `COc1ccc(S(=O)(=O)N2CCN(C(C)c3nc(N4CC(C)CC(C)C4)c4ccccc4n3)CC2)cc1` (stereo not shown) [compound 316], the concentration giving a half-maximal response (EC50) fell in the range of 25 to 60 µM and the Emax lay within 25 to 100%.
As for `COc1ccc(S(=O)(=O)N2CCN(C(C)c3nc(N4CCSC4)c4ccccc4n3)CC2)cc1` (stereo not shown) [compound 393], the EC50 was 10 to 25 µM and the Emax was over 100%.
Turning to `COc1ccc(S(=O)(=O)N2CCN(C(C)c3nc4ccccc4c(=O)n3CCNC(C)=O)CC2)cc1` (stereo not shown) [compound 288], the concentration for a half-maximal effect (EC50) was 25 to 60 µM and the Emax was under 25%.
The corresponding values for `CCn1c(C(C)N2CCN(S(=O)(=O)c3ccccc3)CC2)nc2ccc(Cl)cc2c1=O` (stereo not shown) [compound 37] are 10 to 25 µM and 25 to 100%.
Turning to `COc1ccc(S(=O)(=O)N2CCN(C(C)c3nc(OC4CCC(C)CC4)c4ccccc4n3)CC2)cc1` (stereo not shown) [compound 399], the EC50 is under 10 µM and the Emax lay in the range of 25 to 100%.
Regarding `CC(c1nc2ccccc2c(=O)n1C)N1CCN(S(=O)(=O)c2ccc(Cl)cc2)CC1` (stereo not shown) [compound 9], the EC50 was 10 to 25 µM and the Emax was over 100%.
Consider `Cc1ccccc1S(=O)(=O)N1CCN(C(C)c2nc3cc(Cl)ccc3c(=O)n2C)CC1` (stereo not shown) [compound 109], for which the EC50 is 10 to 25 µM and the Emax is 25 to 100%.
In the case of `CC(c1nc2ccccc2c(=O)n1C)N1CCN(S(=O)(=O)c2ccc(OC(F)F)cc2)CC1` (stereo not shown) [compound 293], the EC50 lay in the range of 25 to 60 µM and the Emax was over 100%.
Regarding `CC(c1nc2ccc(Cl)cc2c(=O)n1C)N1CCN(C(=O)c2ccc(Br)cc2)CC1` (stereo not shown) [compound 17], the 50% effective concentration (EC50) is 10 to 25 µM and the maximal response (Emax) was in the range of 25 to 100%.
`CC(c1nc(N2CCOCC2)c2ccccc2n1)N1CCN(S(=O)(=O)c2ccc(Br)cc2)CC1` (stereo not shown) [compound 223]: the half-maximal effective concentration (EC50) was 10 to 25 µM and the Emax is over 100%.
With `CC(c1nc2ccccc2c(=O)n1C)N1CCN(C(=O)c2ccc(Br)cc2)CC1` (stereo not shown) [compound 55], the EC50 lay within 10 to 25 µM and the Emax was under 25%.
Regarding `CC(c1nc2ccccc2c(=O)n1C)N1CCN(S(=O)(=O)c2ccc(S(=O)(=O)c3ccccc3)s2)CC1` (stereo not shown) [compound 265], the 50% effective concentration (EC50) was 25 to 60 µM and the maximal response (Emax) was under 25%.
The corresponding values for `Cc1ccc(NC(=O)N2CCN(C(C)c3nc4ccc(Cl)cc4c(=O)n3C)CC2)cc1` (stereo not shown) [compound 45] are 25 to 60 µM and 25 to 100%.
For the molecule `Cc1c(S(=O)(=O)N2CCN(C(C)c3nc4ccccc4c(=O)n3C)CC2)sc2ccc(F)cc12` (stereo not shown) [compound 290], the EC50 was 25 to 60 µM and the maximum response (Emax) lay in the range of 25 to 100%.
`CC(NC[C@@H]1CCCCN1S(=O)(=O)c1ccc(Cl)cc1)c1nc2ccccc2c(=O)n1C` (stereo partly shown) [compound 214]: the EC50 was in the range of 25 to 60 µM and the Emax is under 25%.
Taken in the same sequence, the figures for `CC(c1nc2ccccc2c(=O)n1C)N1CCN(C(=O)Nc2ccc(Cl)cc2)CC1` (stereo not shown) [compound 33] were 25 to 60 µM and 25 to 100%.
The corresponding values for `CC(=O)NCCn1c(C(C)N2CCN(S(=O)(=O)c3ccc(Br)cc3)CC2)nc2ccccc2c1=O` (stereo not shown) [compound 287] are 25 to 60 µM and 25 to 100%.
`CC(c1nc2ccccc2c(=O)n1C)N1CCN(S(=O)(=O)c2ccc(-c3ccon3)s2)CC1` (stereo not shown) [compound 269]: the EC50 fell in the range of 25 to 60 µM and the Emax is under 25%.
For the molecule `COc1ccc(S(=O)(=O)N2CCN(C(C)c3nc4ccc(OC)cc4c(=O)n3C)CC2)cc1` (stereo not shown) [compound 135], the EC50 was in the range of 10 to 25 µM and the maximal effect (Emax) is 25 to 100%.

The record behind these values is patent publication US8642609B2, “Modulators of ATP-binding cassette transporters” (Vertex Pharmaceuticals Incorporated, priority 2003, dated 2014).
